The target in assay [1] is BIR3 domain of human XIAP (residues 252-350) (Homo sapiens (Human), UniProt P98170). As to the kind of experiment: XIAP in vitro competitive displacement binding assay (fluorescence polarization). The conditions noted are these: for inhibition at 0.04 µM: 1 h, read-out: IC50 or PI Xiap: PI; for pIC50: read-out: IC50 or PI Xiap: IC50. (Fluorescence polarisation rises when a labelled molecule tumbles more slowly, as on binding a larger partner.)

For assay [2], the target named is BIR3 domain of human cIAP-1 (residues 267-363) (Homo sapiens (Human), UniProt Q13490). Put plainly: cIAP-1 in vitro competitive displacement binding assay (fluorescence polarization; Probe A AVPIK(5&6FAM)-amide or Probe B AbuRPFK(5&6FAM)-amide).
In assay [3] the test system is EVSA-T (human breast carcinoma). As to the kind of experiment: Anti-proliferative activity, Alamar Blue assay, EVSA-T. The conditions noted are these: Homo sapiens, EVSA-T; for inhibition at 10 µM: read-out: EVSA-T prolif: % inhibition. Type of assay: cell-based.
The mark [4] stands for this setting: 3 h, read-out: IC50 or PI cIAP1: PI.
[5] abbreviates: 72 hours, Alamar Blue, read-out: EVSA-T prolif (EC50).
Where [6] appears, read: 3 h, Probe B, @ 0.012 μM, read-out: IC50 or PI cIAP1: PI.
[7] abbreviates: read-out: IC50 or PI cIAP1: IC50.
Setting [8] is: 72 h, read-out: EVSA-T prolif (EC50).

pEC50, pIC50: −log10 of the molar value. Counter-ions that a name gives are not always drawn. Like-named read-outs stand apart in the source and are kept apart here.

For `Cc1cnn(C[C@H]2CN[C@H](C)CN2CC(=O)N2CC(C)(C)c3cnc(C(F)(F)c4ccccc4)cc32)c1` [Example 159, 1-{6-[Difluoro(phenyl)methyl]-3,3-dimethyl-1H,2H,3H-pyrrolo[3,2-c]pyridin-1-yl}-2-[(2R,5R)-5-methyl-2-[(4-methyl-1H-pyrazol-1-yl)methyl]piperazin-1-yl]ethan-1-one dihydrochloride], the inhibition at 0.04 µM in assay [1] was 56%. The inhibition at […] in assay [2] (setting [4]) amounted to 72%. Moreover, in assay [3] (setting [5]), the pEC50 – broadly, the negative decadic logarithm of the EC50, by convention in mol/L – is 6.92.

As for `C[C@@H]1CN(CC(=O)N2CC(C)(C)c3cnc(Cc4ccccc4F)cc32)[C@@H](CN2CCOCC2)CN1` [Example 245, 1-{6-[(2-Fluorophenyl)methyl]-3,3-dimethyl-1H,2H,3H-pyrrolo[3,2-c]pyridin-1-yl}-2-[(2R,5R)-5-methyl-2-(morpholin-4-ylmethyl)piperazin-1-yl]ethan-1-one hydrochloride], the pIC50 (commonly the negative decadic logarithm of the IC50, by convention in mol/L) in assay [1] is 7.33. Further, in assay [2] (setting [6]), the inhibition at […] was determined as 86%. In addition, the pEC50 in assay [3] (setting [5]) is 8.38.

Take `Cc1cnn(C[C@H]2CN[C@H](C)CN2CC(=O)N2CC3(Cc4ccccc4C3)c3ccc(C#N)cc32)c1` [Example 161, 1′-{2-[(2R,5R)-5-Methyl-2-[(4-methyl-1H-pyrazol-1-yl)methyl]piperazin-1-yl]acetyl}-1,1′,2′,3-tetrahydrospiro[indene-2,3′-indole]-6′-carbonitrile]: the pIC50 in assay [1] is 7.22; in assay [2] it was over 6.00; in assay [2] (Probe B AbuRPFK(5&6FAM)-amide, read-out: IC50 or PI cIAP1: IC50), 6.96. Also, the pEC50 in assay [3] (setting [5]) was 5.77.

As for `CCS(=O)(=O)c1ccc2c(c1)N(C(=O)CN1C[C@@H](C)NC[C@@H]1COC)CC2(C)C` [Example 59, 1-(6-Ethane-sulfonyl-3,3-dimethyl-2,3-dihydro-indol-1-yl)-2-((2R,5R)-2-methoxymethyl-5-methyl-piperazin-1-yl)-ethanone dihydrochloride salt], the pIC50 in assay [1] was 6.51; in assay [2] (setting [7]) it was 6.30. Further, the pEC50 in assay [3] (setting [8]) is 5.01.

As to `C[C@@H]1CN(CC(=O)N2CC(C)(C)c3cnc(Cc4ccc(F)cc4)cc32)[C@@H](CN2CCOCC2)CN1` [Example 237, 1-{6-[(4-Fluorophenyl)methyl]-3,3-dimethyl-1H,2H,3H-pyrrolo[3,2-c]pyridin-1-yl}-2-[(2R,5R)-5-methyl-2-(morpholin-4-ylmethyl)piperazin-1-yl]ethan-1-one hydrochloride], the pIC50 in assay [1] was 7.26. The inhibition at […] in assay [2] (setting [6]) was found to be 97%. In assay [3] (setting [5]), the pEC50 is 8.34.

Consider `C[C@@H]1CN(CC(=O)N2CC(C)(C)c3cnc(C(F)(F)c4ccccc4)cc32)[C@@H](CN2CCCC2=O)CN1` [Example 173, 1-{[(2R,5R)-1-(2-{6-[Difluoro(phenyl)methyl]-3,3-dimethyl-1H,2H,3H-pyrrolo[3,2-c]pyridin-1-yl}-2-oxoethyl)-5-methylpiperazin-2-yl]methyl}pyrrolidin-2-one dihydrochloride], for which, in assay [1], the inhibition at 0.04 µM was found to be 73%. Further, the inhibition at […] in assay [2] (setting [4]) came to 80%. Besides, the pEC50 in assay [3] (setting [5]) is 7.44.

Take `C[C@@H]1CN(CC(=O)N2CC(C)(C)c3ncc(C(F)(F)c4ccccc4)cc32)[C@@H](CN2CCOCC2)CN1` [Example 232, 1-{6-[Difluoro(phenyl)methyl]-3,3-dimethyl-1H,2H,3H-pyrrolo[3,2-b]pyridin-1-yl}-2-[(2R,5R)-5-methyl-2-(morpholin-4-ylmethyl)piperazin-1-yl]ethan-1-one dihydrochloride]: the inhibition at 0.04 µM in assay [1] came to 48%. Besides, in assay [2] (setting [4]), the inhibition at […] worked out at 77%. Also, the pEC50 in assay [3] (setting [5]) was 7.44.

As to `C[C@@H]1CN(CC(=O)N2CC(C)(C)c3cc(F)c(S(=O)(=O)N4CCCC4)cc32)CCN1` [Example 49, 1-[5-Fluoro-3,3-dimethyl-6-(pyrrolidine-1-sulfonyl)-2,3-dihydro-indol-1-yl]-2-((R)-3-methyl-piperazin-1-yl)-ethanone dihydrochloride salt], the pIC50 in assay [1] is 6.19; in assay [2] (setting [7]), 5.39. For the same compound, the inhibition at 10 µM in assay [3] was found to be 2%.

As to `C[C@@H]1CN(CC(=O)N2CC(C)(C)c3ccc(Cl)cc32)[C@@H](CO)CN1` [Example 40, 1-(6-Chloro-3,3-dimethyl-2,3-dihydro-indol-1-yl)-2-((2R,5R)-2-hydroxymethyl-5-methyl-piperazin-1-yl)-ethanone hydrochloride salt], the negative-log IC50 (pIC50) in assay [1] was 6.02; in assay [2] it was over 6.00; in assay [2] (Probe A AVPIK(5&6FAM)-amide, read-out: IC50 or PI cIAP1: IC50), 6.09. Also, the inhibition at 10 µM in assay [3] (at 10 μM) was 45%.

`Cc1nc(C)n(C[C@H]2CN[C@H](C)CN2CC(=O)N2CC(C)(C)c3cnc(Cc4ccc(F)cc4F)cc32)n1` [Example 206, 1-{6-[(2,4-Difluorophenyl)methyl]-3,3-dimethyl-1H,2H,3H-pyrrolo[3,2-c]pyridin-1-yl}-2-[(2R,5R)-2-[(dimethyl-1H-1,2,4-triazol-1-yl)methyl]-5-methylpiperazin-1-yl]ethan-1-one hydrochloride]: the pIC50 in assay [1] was 7.10. In assay [2] (setting [6]), the inhibition at […] amounted to 97%. In assay [3] (setting [5]), the pEC50 was 8.77.

`C[C@@H]1CN(CC(=O)N2CC(C)(C)c3cnc(Cc4ccccc4F)cc32)[C@@H](CN2CCOC[C@H]2C)CN1` [Example 244, 1-{6-[(2-Fluorophenyl)methyl]-3,3-dimethyl-1H,2H,3H-pyrrolo[3,2-c]pyridin-1-yl}-2-[(2R,5R)-5-methyl-2-{[(3R)-3-methylmorpholin-4-yl]methyl}piperazin-1-yl]ethan-1-one hydrochloride]: the inhibition at 0.04 µM in assay [1] (@ 0.04 μM) stood at 67%. Besides, the inhibition at […] in assay [2] (setting [6]) came to 98%. For the same compound, the pEC50 in assay [3] (setting [5]) is 8.66.

On to `C[C@@H]1CN(CC(=O)N2CC(C)(C)c3cnc(Cc4ccc(F)cc4F)cc32)[C@@H](CN2CCOCC2)CN1` [Example 219, 1-{6-[(2,4-Difluorophenyl)methyl]-3,3-dimethyl-1H,2H,3H-pyrrolo[3,2-c]pyridin-1-yl}-2-[(2R,5R)-5-methyl-2-(morpholin-4-ylmethyl)piperazin-1-yl]ethan-1-one dihydrochloride], for which the pIC50 in assay [1] was 7.28. Moreover, the inhibition at […] in assay [2] (setting [4]) was determined as 93%. Moreover, the pEC50 in assay [3] (setting [8]) is 8.30.

Turning to `CCCC(F)(F)c1cc2c(cn1)C(C)(C)CN2C(=O)CN1C[C@@H](C)NC[C@@H]1Cc1nccs1` [Example 233, 1-[6-(1,1-Difluorobutyl)-3,3-dimethyl-1H,2H,3H-pyrrolo[3,2-c]pyridin-1-yl]-2-[(2S,5R)-5-methyl-2-(1,3-thiazol-2-ylmethyl)piperazin-1-yl]ethan-1-one hydrochloride], the pIC50 in assay [1] was 7.12. Besides, in assay [2] (setting [6]), the inhibition at […] was found to be 62%. In addition, the pEC50 in assay [3] (setting [5]) is 7.04.

Consider `C[C@@H]1CN(CC(=O)N2CC(C)(C)c3cnc(Cc4ccc(F)cc4F)cc32)[C@@H](CN2CCC(=O)C2)CN1` [Example 207, 1-{[(2R,5R)-1-(2-{6-[(2,4-Difluorophenyl)methyl]-3,3-dimethyl-1H,2H,3H-pyrrolo[3,2-c]pyridin-1-yl}-2-oxoethyl)-5-methylpiperazin-2-yl]methyl}pyrrolidin-3-one dihydrochloride], for which, in assay [1], the pIC50 is 7.24. Further, in assay [2] (setting [4]), the inhibition at […] was determined as 98%. In assay [3] (setting [8]), the pEC50 was 8.40.

Consider `C[C@@H]1CN(CC(=O)N2CC(C)(C)c3cnc(C(F)(F)c4ccccc4)cc32)[C@@H](CN2C(=O)CCC2=O)CN1` [Example 218, 1-{[(2R,5R)-1-(2-{6-[Difluoro(phenyl)methyl]-3,3-dimethyl-1H,2H,3H-pyrrolo[3,2-c]pyridin-1-yl}-2-oxoethyl)-5-methylpiperazin-2-yl]methyl}pyrrolidine-2,5-dione dihydrochloride], for which, in assay [1], the pIC50 was 7.21. In addition, the inhibition at […] in assay [2] (setting [4]) is 78%. Besides, the pEC50 in assay [3] (setting [8]) was 7.19.

In the case of `C[C@@H]1CN(CC(=O)N2CC(C)(C)c3cnc(Cc4ccccc4)cc32)[C@@H](C(=O)N2CCCC2)CN1` [Example 131, 1-{6-Benzyl-3,3-dimethyl-1H,2H,3H-pyrrolo[3,2-c]pyridin-1-yl}-2-[(2R,5R)-5-methyl-2-[(pyrrolidin-1-yl)carbonyl]piperazin-1-yl]ethan-1-one dihydrochloride], in assay [1], the pIC50 is 6.89. Further, in assay [2] (setting [4]), the inhibition at 0.01 µM was 63%. Also, the pEC50 in assay [3] (setting [8]) is 7.06.

As to `COC[C@H]1CN[C@H](C)CN1CC(=O)N1CC(C)(C)c2cnc(-c3ccsc3)cc21` [Example 126, 1-[3,3-Dimethyl-6-(thiophen-3-yl)-1H,2H,3H-pyrrolo[3,2-c]pyridin-1-yl]-2-[(2R,5R)-2-(methoxymethyl)-5-methylpiperazin-1-yl]ethan-1-one dihydrochloride], the pIC50 was 6.42 in assay [1] and 7.07 in assay [2] (setting [7]). Further, the pEC50 was over 5.00 in assay [3] (72 h, read-out: EC50, inhibition of cell growth) and 5.74 in assay [3] (setting [8]).

As for `C[C@@H]1CN(CC(=O)N2CC(C)(C)c3cnc(Cc4ccc(F)cc4F)cc32)[C@@H](CN2CC[C@@H](F)C2)CN1` [Example 203, 1-{6-[(2,4-Difluorophenyl)methyl]-3,3-dimethyl-1H,2H,3H-pyrrolo[3,2-c]pyridin-1-yl}-2-[(2R,5R)-2-{[(3R)-3-fluoropyrrolidin-1-yl]methyl}-5-methylpiperazin-1-yl]ethan-1-one dihydrochloride], the pIC50 in assay [1] was 7.14. Besides, in assay [2] (setting [4]), the inhibition at […] amounted to 97%. The pEC50 in assay [3] (setting [8]) was 8.49.

The record behind these values is patent US9018214B2, “Bicyclic heterocycle compounds and their uses in therapy” (Astex Therapeutics Limited, priority 2011, dated 2015).
